These results are taken from PubChem BioAssay (NCI).

Some test systems named below: RXF-631 renal; DMS 273 small cell lung; LXFL 529 NSCLC; SNB-78 CNS; HOP-18 NSCLC; DLD-1 colon; XF 498 CNS; MDA-N; T-47D breast.
Common to all, as to assay: NCI tumour cell line growth inhibition, 48 h

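Results reflect a 48-hour exposure of cells in 96-well plates to compound at five concentrations. TGI: total growth inhibition.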

Take `C/C(=N\NS(=O)(=O)c1ccccc1)c1ccc[n+]([O-])n1`: the TGI with RXF-631 renal, with DMS 273 small cell lung, in the experiment on LXFL 529 NSCLC, with SNB-78 CNS, in the experiment with HOP-18 NSCLC and in the experiment with DLD-1 colon was greater than 100 µM in each case.
Turning to `CCOc1ccccc1NC(=O)C(=O)c1c(O)c2ccc(O)cc2oc1=O`, the TGI with RXF-631 renal, in the experiment with DMS 273 small cell lung, in the experiment on LXFL 529 NSCLC, in the experiment on SNB-78 CNS, in the experiment on HOP-18 NSCLC and in the experiment on DLD-1 colon was greater than 100 µM throughout.
As to `C=C1CC(CC(=O)C(C)CC2CC(=C)C(=O)O2)OC1=O` (stereo not given), the TGI was greater than 100 µM in the experiment with RXF-631 renal; 57.5 µM in the experiment on DMS 273 small cell lung; 27.8 µM in the experiment on LXFL 529 NSCLC; 49.7 µM in the experiment with SNB-78 CNS; 43.3 µM with XF 498 CNS; 47.3 µM with HOP-18 NSCLC. The TGI in the experiment on DLD-1 colon was determined as 30.4 µM.
Turning to `Cc1ccc(SSCCCCS(=O)O)cc1`, the TGI in the experiment on RXF-631 renal was 77.6 µM; in the experiment on DMS 273 small cell lung, 65.7 µM; in the experiment with LXFL 529 NSCLC, 25.5 µM; in the experiment with SNB-78 CNS it was greater than 100 µM; in the experiment with XF 498 CNS it was 32 µM; in the experiment with HOP-18 NSCLC it was greater than 100 µM. The TGI in the experiment with DLD-1 colon was greater than 100 µM.
On to `CCCCCCC(=O)CC(=O)C(=O)Nc1ccccc1C`, for which the TGI with RXF-631 renal, with DMS 273 small cell lung, with LXFL 529 NSCLC, in the experiment with SNB-78 CNS, in the experiment with XF 498 CNS and in the experiment with HOP-18 NSCLC was greater than 100 µM each time. The same compound showed a TGI in the experiment on DLD-1 colon greater than 100 µM.
For the compound `Nc1ncnc2c1ncn2COC/C=C/I`, the TGI in the experiment with RXF-631 renal, in the experiment with DMS 273 small cell lung, in the experiment with LXFL 529 NSCLC, in the experiment on SNB-78 CNS, with XF 498 CNS and with HOP-18 NSCLC was greater than 100 µM in each case. In the experiment with DLD-1 colon, this compound registered a TGI greater than 100 µM.
Regarding `CC(=O)Nc1ccccc1S(=O)c1ccccc1` (stereo not given), the TGI in the experiment with RXF-631 renal, in the experiment on DMS 273 small cell lung, with LXFL 529 NSCLC, in the experiment with SNB-78 CNS, in the experiment with XF 498 CNS and in the experiment with HOP-18 NSCLC was greater than 100 µM throughout. In addition, the TGI in the experiment on DLD-1 colon was greater than 100 µM.
`NNC(=O)N/N=C1/C(=O)N(c2ccc(Cl)c(Cl)c2)C(=O)C(=O)C1c1nc2ccccc2o1` (stereo not given): the TGI in the experiment on RXF-631 renal, in the experiment with DMS 273 small cell lung, with LXFL 529 NSCLC, in the experiment with SNB-78 CNS, in the experiment with HOP-18 NSCLC and in the experiment on DLD-1 colon was greater than 100 µM throughout.
With `Cc1ccccc1NC(=O)CC(=O)n1nc(-c2ccccc2)c(N=Nc2ccc([N+](=O)[O-])cc2)c1-c1ccccc1`, the TGI in the experiment on RXF-631 renal is 41.6 µM; in the experiment on DMS 273 small cell lung, 49.4 µM; with LXFL 529 NSCLC, greater than 100 µM; with SNB-78 CNS, greater than 100 µM; in the experiment on XF 498 CNS, 51.7 µM; with HOP-18 NSCLC, 87.8 µM. Moreover, the TGI in the experiment on DLD-1 colon is greater than 100 µM.
Take `CCOC(=O)C1C(=O)c2cccc(OC)c2C2COC(=O)N12` (stereo not given): the TGI with RXF-631 renal, in the experiment on DMS 273 small cell lung, in the experiment on LXFL 529 NSCLC, in the experiment on XF 498 CNS, in the experiment on HOP-18 NSCLC and in the experiment with DLD-1 colon was greater than 100 µM each time.
As for `COc1c(OC2OC(CO)C(O)C(O)C2O)cc2c(c1OC)-c1ccc(OC)c(=O)cc1[C@@H](NC(C)=O)CC2` (stereo not given in full), the TGI in the experiment on RXF-631 renal is greater than 100 µM; in the experiment on DMS 273 small cell lung, greater than 100 µM; in the experiment on LXFL 529 NSCLC it was greater than 100 µM; in the experiment on SNB-78 CNS, greater than 100 µM; in the experiment with XF 498 CNS, greater than 93 µM; with HOP-18 NSCLC, greater than 100 µM. For the same compound, the TGI in the experiment on DLD-1 colon was greater than 100 µM.
Regarding `N#CC12CC3(CCC1CCC1(C2)OCCO1)OCCO3` (stereo not given), the TGI in the experiment on RXF-631 renal, in the experiment with DMS 273 small cell lung, in the experiment with LXFL 529 NSCLC, in the experiment on SNB-78 CNS, with XF 498 CNS and in the experiment with HOP-18 NSCLC was greater than 100 µM each time. The same compound showed a TGI in the experiment with DLD-1 colon greater than 100 µM.
With `CCCCCC/C(CC(=O)CCC(=O)NCCc1ccccc1)=N\NC(=O)c1ccc2ccccc2c1O`, the TGI is greater than 100 µM with RXF-631 renal; greater than 100 µM with LXFL 529 NSCLC; greater than 100 µM with SNB-78 CNS; greater than 100 µM in the experiment with XF 498 CNS; 63.9 µM in the experiment on HOP-18 NSCLC; greater than 100 µM in the experiment on DLD-1 colon.
In the case of `CCCCCCCCC(=O)NCCN(CCN)C(=O)CCCCCCCC`, the TGI in the experiment on MDA-N is 11.6 µM; in the experiment with RXF-631 renal, 13 µM; in the experiment with T-47D breast it was 32.9 µM; in the experiment with DMS 273 small cell lung it was 6.65 µM; with LXFL 529 NSCLC, 7.89 µM; in the experiment with SNB-78 CNS, 23.4 µM. Further, the TGI in the experiment with XF 498 CNS came out at 5.43 µM; in the experiment with HOP-18 NSCLC, 31 µM; in the experiment on DLD-1 colon, 10.4 µM.
